Laboratory results reported in PubChem BioAssay (NCI).
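These data come from cells grown in 96-well plates and exposed to compound for 48 hours at five concentrations. At the GI50, growth is halved. TGI is the concentration that stops growth completely.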

Legend:
Test in all cases: NCI-60 cell line screen, 48 h
[1] = test system: BT-549 breast
[2] = test system: OVCAR-3 ovarian
[3] = test system: A498 renal
[4] = test system: U251 CNS
[5] = test system: SK-OV-3 ovarian
[6] = test system: UACC-62 melanoma
[7] = test system: NCI-H522 lung
[8] = test system: KM20L2 colon
[9] = test system: DMS 273 small cell lung
[10] = test system: M19-MEL melanoma
[11] = test system: HOP-18 NSCLC
[12] = test system: SNB-78 CNS
[13] = test system: DMS 114 small cell lung
[14] = test system: LXFL 529 NSCLC

Compound | TGI [1] | TGI [2] | TGI [3] | TGI [4] | TGI [5] | TGI [6] | GI50 [2] | GI50 [7] | TGI [7] | GI50 [5] | GI50 [6] | TGI [8] | TGI [9] | TGI [10] | TGI [11] | TGI [12] | TGI [13] | TGI [14] | GI50 [1] | GI50 [4]
O=c1oc2cc(O)ccc2c(O)c1C(c1ccccc1)c1c(O)c2ccc(O)cc2oc1=O | > 100 µM | > 100 µM | > 100 µM | > 100 µM | > 100 µM | > 100 µM |  |  |  |  |  |  |  |  |  |  |  |  |  | 
O=C1CC2(CCC(O)(c3ccc4ccccc4c3)C(C(=O)c3ccc4ccccc4c3)C2)C(=O)c2ccccc2N1 (stereo unspecified) | > 100 µM | > 100 µM | > 100 µM | > 100 µM | > 100 µM | > 100 µM |  |  |  |  |  |  |  |  |  |  |  |  |  | 
COc1cnc2c(c1)C(=O)c1c-2n(CCCN2CCOCC2)c(=O)c2cc(Cl)ccc12 |  | > 100 µM |  |  | > 100 µM | > 100 µM | 783 nM | 244 nM | > 100 µM | 397 nM | 187 nM |  |  |  |  |  |  |  |  | 
O=C1CCC(c2ccccc2)=NN1c1nsc2ccccc12 |  | > 100 µM |  | > 100 µM |  | > 100 µM |  |  |  |  |  | > 100 µM | > 100 µM | > 100 µM | > 100 µM | > 100 µM | > 100 µM | > 100 µM |  | 
Nc1ncc(-c2ccc3ncnc(Nc4ccc(F)c(Cl)c4)c3c2)cn1 | 8.27 µM | 2.57 µM |  | 4.24 µM | 3.96 µM | 39.9 µM | 1200 nM | 1700 nM | 8.92 µM | 634 nM | 4990 nM |  |  |  |  |  |  |  | 1880 nM | 1720 nM
O=C(O)C(Cl)(Cl)Cl |  |  |  | > 100 µM | > 100 µM |  |  |  |  |  |  | > 100 µM | > 100 µM | > 100 µM | > 100 µM | > 100 µM | > 100 µM | > 100 µM |  | 
